The values below come from patent publication US20260060970A1, “Use of a Therapeutic Agent with Phosphodiesterase-7 Inhibitory Activity for the Treatment and Prevention of Diseases Associated with Chronic Fatigue, Exhaustion and/or Exertional Intolerance” (MITODICURE GMBH, priority 2022, published 2026).

Structures are written as SMILES.

One assay deals with T1, PDE7A (Homo sapiens, UniProt Q13946).
T1 construct: host or cells: Sf9 insect cells
Briefly: PDE7 enzymatic assay, IC50 determination (PDE7A). Format: biochemical. To be noted: human recombinant enzyme, 0.1 μM FAM-cAMP, 30 min 25° C. The procedure:
(§1) The ability of compounds to inhibit PDE7 may be measured using the following assay protocal: Assay methods for IC50 determination of PDE7 and variants involve as enzyme source human recombinant insect Sf9 cells. The substrate is 0.1 μM FAM-cAMP and the vehicle is 1.0% DMSO or 1.0% PEG 400. Pre-incubation time and temperature are 15 minutes at 25° C. and incubation time and temperature are 30 minutes at 25° C. The incubation buffer consists of 10 mM Tris-HCl, PH 7.2, 10 mM MgCl2, 0.05% NaN3, and 0.1% phosphate-free BSA. The quantitation method used is spectrofluorimetric quantitation of Fluorescein-AMP-IMAP. IBMX reference standards are run as an integral part of each assay to ensure the validity of the results obtained. The IC50 is the concentration of the compound (inhibitor) tested in the assay which makes it possible to reduce the enzymatic activity of PDE7 by 50%. IC50 values are finally determined by a non-linear, least squares regression analysis using MathIQ™ (ID Business Solutions Ltd., UK).
(§2) The compounds to be tested as PDE7 inhibitors were initially dissolved in vehicle at a concentration of 30 mM. These solutions were tested as the highest test concentration and then further diluted in cascade always in a ratio of 1:6 to obtain solutions with the desired lower test concentrations. Each assay was carried out in duplicate.

In a further assay the target is T2, PDE7B (Homo sapiens, UniProt Q9NP56).
T2 construct: host or cells: Sf9 insect cells
T2 sequence (Q9NP56 whole entry): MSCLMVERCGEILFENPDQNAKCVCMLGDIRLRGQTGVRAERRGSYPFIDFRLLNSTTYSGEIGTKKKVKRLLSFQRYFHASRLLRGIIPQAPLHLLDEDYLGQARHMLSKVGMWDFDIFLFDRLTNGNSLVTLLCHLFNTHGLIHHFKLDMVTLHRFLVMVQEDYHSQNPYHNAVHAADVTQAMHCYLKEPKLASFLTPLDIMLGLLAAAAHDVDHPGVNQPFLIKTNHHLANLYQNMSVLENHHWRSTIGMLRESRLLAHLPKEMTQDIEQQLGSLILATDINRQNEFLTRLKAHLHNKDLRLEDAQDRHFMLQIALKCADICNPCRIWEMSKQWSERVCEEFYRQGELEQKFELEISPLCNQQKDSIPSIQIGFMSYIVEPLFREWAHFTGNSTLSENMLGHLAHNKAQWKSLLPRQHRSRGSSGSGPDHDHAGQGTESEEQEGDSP
Briefly: PDE7 enzymatic assay, IC50 determination (PDE7B). Format: biochemical. To be noted: human recombinant enzyme, 0.1 μM FAM-cAMP, 30 min 25° C. The method, then:
as §1, §2

Assay [1] deals with isolated rat soleus muscle. Put plainly: Ex vivo model: residual contractile force of isolated rat soleus muscle in high KCl buffer (Na+/K+ATPase activation). Conditions: for Mean residual contractile force in % (SEM in %): after 30 min in KCl 12.5 mM buffer. The text has this:
Muscular fatigue and loss of force (e.g., loss of handgrip strength) is a hallmark in ME/CFS patients. A main target of PDE7 inhibition is the skeletal muscle whose energetic function is deeply disturbed in ME/CFS and which is presumed to be very important in the symptomatology of ME/CFS. Insufficient stimulation of the Na^+/K^+ATPase plays a key role in the development of the disturbances by a rise in intramuscular sodium that finally leads to calcium overload. The latter causes a deep functional energetic disturbance or damage. The isolated rat muscle either soleus muscle or extensor digitorum longus muscle is a well-characterized and well-validated model for the study of the function of the Na^+/K^+ATPase. The isolated rat soleus muscle is particularly appropriate for experiments ex vivo as it is very thin so that there is no need for blood supply. […] In the experimental setting used, the high KCl concentration buffer causes partial depolarization that leads to sodium influx to disturb and to decrease excitability to subsequently reduce muscle force. Stimulation of Na^+/K^+ATPase lowers intracellular sodium levels towards physiological levels to restore excitability and muscular force during electrical stimulation.
The decline in force in the soleus muscle can be considered as muscular fatigue and related to the loss of hand grip muscular strength in ME/CFS patients. As the phosphodiesterase isoenzyme subtype 7 (PDE7) is the predominant PDE isoenzyme in skeletal muscle to raise cAMP this ex vivo model is suited for the testing the effect of PDE7 inhibitors and in particular their effect on force generation disturbed by mechanisms that worsen excitability or the energetic situation. […] High level activity of Na^+/K^+ATPase stimulated by cAMP can counteract the decrease in excitability and the loss of force.
Muscle preparation and incubation: Female Sprague Dawley rats of 5 weeks of age were used. After isoflurane anesthesia and cervical dislocation the intact soleus muscles of the animals were dissected. The soleus muscles were mounted at resting length in a vertical position between two field stimulation electrodes (thick copper wires) in organ bathes containing 15 mL incubation medium. The lower end of the muscle was fixed to a clip fixed to the bottom of the organ bath, the upper end of the muscle was fixed to an isometric force transducer (Force transducer K300 Hugo Sachs) by a clip allowing measurement of isometric contractions, and a tension of 100 mN was applied.
Force measurement: The experimental set-up used for force measurements allowed for the simultaneous recordings from 6 muscles in separate incubation chambers in parallel. Force was recorded and stored with a Notocord HEM data acquisition system. […] Incubation took place at 30° C. […] Electrical stimulation protocol: After an equilibration period of 30 min muscles were field-stimulated to deliver optimal force at 83 Hz, 2-3 ms pulses, 12 V (biphasic), 0.2-0.5 s train width with a Hugo Sachs stimulator (HSE). […] Stimulations were then performed every 5 min for 30 min. […] Two control groups were included.
The residual contractile force after 30 min in high KCl buffer was chosen as the efficacy parameter and related to the last value of stimulated force in the initial buffer in the same organ bath. The percentages of residual force were compared between the different groups and used for statistical calculation.

Another assay deals with PDE7. Briefly: PDE7 enzymatic assay, IC50 determination (PDE7). It counts as biochemical. Conditions: human recombinant enzyme, 0.1 μM FAM-cAMP, 30 min 25° C. The method, then: as §1, §2
A further assay has as its system PDE7 enzyme. To be noted: cited from earlier work.

T1 sequence (Q13946 whole entry): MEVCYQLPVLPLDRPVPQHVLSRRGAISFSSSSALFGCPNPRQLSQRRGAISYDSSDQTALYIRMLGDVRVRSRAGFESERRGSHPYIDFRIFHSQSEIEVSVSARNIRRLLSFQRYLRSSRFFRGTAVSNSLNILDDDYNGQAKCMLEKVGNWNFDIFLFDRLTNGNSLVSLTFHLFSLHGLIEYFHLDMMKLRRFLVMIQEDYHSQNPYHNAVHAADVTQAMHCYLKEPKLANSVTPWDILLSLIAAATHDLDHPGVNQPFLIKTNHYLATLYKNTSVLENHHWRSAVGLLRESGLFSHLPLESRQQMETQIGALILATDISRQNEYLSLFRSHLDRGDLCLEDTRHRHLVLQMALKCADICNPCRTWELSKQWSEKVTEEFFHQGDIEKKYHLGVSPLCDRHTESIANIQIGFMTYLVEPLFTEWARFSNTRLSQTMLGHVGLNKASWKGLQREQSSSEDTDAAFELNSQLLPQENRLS

As for `O=C1Nc2c(Cl)ccc(O[C@H]3C[C@H](C(=O)O)C3)c2C2(CCCCC2)N1` [Formula No. 44A], the IC50 (as a rule, the concentration needed to halve the response being measured) on PDE7A is 26 nM; on PDE7B, 72 nM. For the same molecule, the “Mean residual contractile force in % (SEM in %)” value in assay [1] (26 nM in the presence of salbutamol 1 μM) is 63.5 (7.8); n = 6; p < 0.01%.
Turning to `S=c1[nH]c2ccccc2c(=S)n1-c1ccccc1` [Formula No. 42A, 3-phenyl-2,4(1H,3H)-quinazolinedithione], the “Mean residual contractile force in % (SEM in %)” value in assay [1] (3.5 μM in the presence of salbutamol 1 μM) was 48.5 (8.6); n = 7; p < 0.05%.
Consider `CC(C)(C)NCC(O)c1ccc(O)c(CO)c1` (stereo not shown) [Salbutamol, reference compound], for which the “Mean residual contractile force in % (SEM in %)” value in assay [1] (salbutamol alone 1 μM) is reported as 26.5 (3.9); n = 30%.
`CC(C)Cn1c(=O)n(C)c(=O)c2[nH]cnc21` [IBMX, 3-isobutyl-1-methylxanthine, reference compound]: on PDE7A, the IC50 stood at 10000 nM.
In the case of `Cc1nn(C2CCCCC2)c2sc(C(=O)NCC(C)(C)CN3C(=O)CNC3=O)cc12` [Formula No. 6G], in the assay on PDE7, the IC50 came to 20 nM.
As to `O=CN1CCC(n2c(=O)n(Cc3ccc(-c4cccs4)cc3)c(=O)c3cc(OC(CF)CF)c(F)cc32)CC1` [Formula No. 55J], in the assay with PDE7, the IC50 is less than 100 nM.
For `COc1ccc(Cn2c(=O)c3cc(OC(CF)CF)c(F)cc3n(C3CCN(C=O)CC3)c2=O)cc1OC` [Formula No. 55E], the values for the IC50 on PDE7A and at PDE7B were 14.2 nM and 83 nM, respectively. The “Mean residual contractile force in % (SEM in %)” value in assay [1] (29 nM in the presence of salbutamol 1 μM) is listed as 69.3 (4.1); n = 5; p < 0.01%.
On to `COc1ccc(C2CNC(=O)C2)cc1OC1CCCC1` (stereo not shown) [rolipram], for which, in the assay with PDE7 enzyme, the “inhibition of PDE7 by rolipram” value is recorded as “not inhibited”.
Consider `Cc1nn(C2CCOCC2)c2sc(C(=O)N[C@H]3CC[C@H](N4CCOCC4)CC3)cc12` [Formula No. 6E], for which the half-maximal inhibitory concentration (IC50) in the assay on PDE7 came out at 24 nM.
With `CC(=O)N1CCN([C@H]2CC[C@H](NC(=O)c3cc4c(C)nn(C5CCOCC5)c4s3)CC2)CC1` [Formula No. 6F], in the assay with PDE7, the concentration for half-maximal inhibition (IC50) came to 19 nM.
Turning to `CNC(=O)c1ccc(NC(=O)c2cc3c(C)nn(C4CCCCC4)c3s2)cn1` [Formula No. 6B], the figures for the IC50 on PDE7A, on PDE7B and in the assay with PDE7 were 11.1 nM, 53 nM and 33 nM, respectively. Further, the “Mean residual contractile force in % (SEM in %)” value in assay [1] (0.99 μM in the presence of salbutamol 1 μM) is on record as 50.7 (3.6); n = 6; p < 0.05%.
With `O=C1Nc2c(Cl)ccc(Oc3ccccc3-c3nnn[nH]3)c2C2(CCCCC2)N1` [Formula No. 35A], the IC50 on PDE7A was determined as 0.3 nM; at PDE7B it was 0.9 nM.
As for `Cc1nn(C2CCCCC2)c2sc(C(=O)Nc3ccc(C(=O)N(C)C)cc3)cc12` [Formula No. 6C], in the assay on PDE7, the IC50 was determined as 14 nM.
On to `OCCN(CCO)c1nc(N2CCCCC2)c2nc(N(CCO)CCO)nc(N3CCCCC3)c2n1` [Dipyridamole, 2,2′,2″,2′″-[[4,8-Di(piperidin-1-yl)pyrimido[5,4-d]pyrimidine-2,6-diyl]dinitrilo]tetraethanol, reference compound], for which the IC50 on PDE7A amounted to 42000 nM. Further, in assay [1] (30 μM in the presence of salbutamol 1 μM), the “Mean residual contractile force in % (SEM in %)” value is 46.3 (6.3); n = 15; p < 0.01%. The “effect on residual contractile force compared with salbutamol alone” value in assay [1] (test compound plus salbutamol 1 μM, KCl 12.5 mM buffer) is given as “numerically stronger effect than salbutamol alone”.
Turning to `CC(=O)Nc1ccc(NC(=O)c2cc3c(C)nn(C4CCCCC4)c3s2)cc1` [Formula No. 6D], the IC50 in the assay with PDE7 turned out to be 37 nM.
Still for that read-out and setting: the figure for `Cc1nn(C2CCCCC2)c2sc(C(=O)N[C@H](C)CN3C(=O)CNC3=O)cc12` [Formula No. 6H] is 34 nM; for `Cc1nn(C2CCCCC2)c2sc(C(=O)Nc3ccc(N4CCNC4=O)nc3)cc12` [Formula No. 6A] it is 20 nM.
Turning to `Cc1ccc([N+](=O)[O-])cc1S(=O)(=O)N(C)C` [Formula No. 8A], the “Mean residual contractile force in % (SEM in %)” value in assay [1] (4.5 μM in the presence of salbutamol 1 μM) was 80.2 (6.0); n = 15; p < 0.001%.
